Source: patent US8841321B2, “Quinoline derivatives as antibacterial agents” (Janssen Pharmaceutica NV, priority 2005, dated 2014)
In brackets after ≈: the same amount, converted by molar mass.

Key:
[1] = tested on: STA 29213 (Staphylococcus aureus (ATCC29213)); assay: Microtitre plate assay, IC90 determination; format: cell-based; conditions: for IC90 (μg/ml) STA 29213: Staphylococcus aureus (ATCC29213)
Procedure: (§1) The bacteria used in this study were grown overnight in flasks containing 100 ml Mueller-Hinton Broth (Becton Dickinson—cat. no. 275730) in sterile de-ionized water, with shaking, at 37° C. Stocks (0.5 ml/tube) were stored at −70° C. until use. Bacteria titrations were performed in microtiter plates and colony forming units (CFUs) were determined. In general, an inoculum level of approximately 100 CFUs was used for susceptibility testing.
(§2) Flat-bottom, sterile 96-well plastic microtiter plates were filled with 180 μl of sterile deionized water, supplemented with 0.25% BSA. Subsequently, stock solutions (7.8× final test concentration) of compounds were added in 45 μl volumes in column 2. Serial five-fold dilutions (45 μl in 180 μl) were made directly in the microtiter plates from column 2 to reach column 11. Untreated control samples with (column 1) and without (column 12) inoculum were included in each microtiter plate. Depending on the bacteria type, approximately 10 to 60 CFU per well of bacteria inoculum (100 TCID50), in a volume of 100 μl in 2.8× Mueller-Hinton broth medium, was added to the rows A to H, except column 12. The same volume of broth medium without inoculum was added to column 12 in row A to H. The cultures were incubated at 37° C. for 24 hours under a normal atmosphere (incubator with open air valve and continuous ventilation). At the end of incubation, one day after inoculation, the bacterial growth was quantitated fluorometrically. Therefore resazurin (0.6 mg/ml) was added in a volume of 20 μl to all wells 3 hours after inoculation, and the plates were re-incubated overnight. A change in colour from blue to pink indicated the growth of bacteria. The fluorescence was read in a computer-controlled fluorometer (Cytofluor Biosearch) at an excitation wavelength of 530 nm and an emission wavelength of 590 nm. The % growth inhibition achieved by the compounds was calculated according to standard methods. The IC90 (expressed in μg/ml) was defined as the 90% inhibitory concentration for bacterial growth.

[2] = tested on: SPN 6305 (Streptococcus pneumoniae (ATCC6305)); assay: Microtitre plate assay, IC90 determination; format: cell-based; conditions: for IC90 (μg/ml) SPN 6305: Streptococcus pneumoniae (ATCC6305)
Procedure: as §1, §2

| SMILES | IC90 (μg/ml) STA 29213 [1] | IC90 (μg/ml) SPN 6305 [2] | IC90 ([1]; Staphylococcus aureus, ATCC29213, Staphylococcus aureus (ATCC29213), read-out: IC90 (μg/ml) STA 29213) | IC90 ([2]; Streptococcus pneumoniae, ATCC6305, Streptococcus pneumoniae (ATCC6305), read-out: IC90 (μg/ml) SPN 6305) |
| --- | --- | --- | --- | --- |
| CSc1nc2ccc(Br)cc2cc1C(c1ccccc1)C(O)(CCCCN(C)C)c1ccc2ccccc2c1 (single isomer, unassigned) [Compound 3] | 60.0 µg/mL (≈ 100 µM) | 60.0 µg/mL (≈ 100 µM) |  |  |
| COc1nc2ccc(Br)cc2cc1C(c1ccccc1)C(O)(CCCCN1CCCCC1)CCC(C)C (single isomer, unassigned) [Compound 123] | 2.26 µg/mL (≈ 3.98 µM) | 1.79 µg/mL (≈ 3.15 µM) |  |  |
| COc1nc2ccc(Br)cc2cc1C(c1ccc(Cl)c(Cl)c1)C(O)(CCCCN1CCCCC1)c1ccccc1 (single isomer, unassigned) [Compound 172] | 2.03 µg/mL (≈ 3.16 µM) | 2.28 µg/mL (≈ 3.55 µM) |  |  |
| COc1nc2ccc(Br)cc2cc1C(c1ccccc1)C(O)(CCCCN1CCCCC1)CCCc1ccccc1 (single isomer, unassigned) [Compound 146] | 9.76 µg/mL (≈ 15.9 µM) | 5.49 µg/mL (≈ 8.92 µM) |  |  |
| CCCCN(C)CCCCC(O)(c1ccccc1)C(c1ccccc1)c1cc2cc(Br)ccc2nc1OC (racemic) [Compound 92] | 11.48 µg/mL (≈ 19.9 µM) | 2.29 µg/mL (≈ 3.98 µM) |  |  |
| COc1nc2ccccc2cc1C(c1ccc(Br)cc1)C(O)(CCCCN(C)C)c1ccc2ccccc2c1 (stereo not drawn) [Compound 66] | 1.85 µg/mL (≈ 3.17 µM) | 1.85 µg/mL (≈ 3.17 µM) |  |  |
| COc1ccc(C(c2cc3cc(Br)ccc3nc2OC)C(O)(CCCCN2CCCCC2)c2ccc(C)cc2)cc1 (single isomer, unassigned) [Compound 167] | 1.95 µg/mL (≈ 3.16 µM) | 2.19 µg/mL (≈ 3.55 µM) |  |  |
| COc1nc2ccc(Br)cc2cc1C(c1ccccc1)C(O)(CCCCN1CCN(C)CC1)c1ccccc1 (single isomer, unassigned) [Compound 108] | 8.31 µg/mL (≈ 14.1 µM) | 2.34 µg/mL (≈ 3.98 µM) |  |  |
| COc1nc2ccccc2cc1C(c1ccc(-c2ccccc2)cc1)C(O)(CCCCN(C)C)c1ccc2ccccc2c1 (stereo not drawn) [Compound 175] | 1.84 µg/mL (≈ 3.17 µM) | 2.06 µg/mL (≈ 3.55 µM) |  |  |
| COc1nc2ccc(C)cc2cc1C(c1ccccc1)C(O)(CCCCCN(C)C)c1ccccc1 (single isomer, unassigned) [Compound 153] | 3.8 µg/mL (≈ 7.87 µM) | 7.65 µg/mL (≈ 15.8 µM) |  |  |
| COc1nc2ccc(Br)cc2cc1C(c1ccccc1)C(O)(CCCCN1CCCCC1)c1ccccc1 (racemic) [Compound 95] | 10.2 µg/mL (≈ 17.8 µM) | 2.28 µg/mL (≈ 3.98 µM) |  |  |
| COc1nc2ccc(Br)cc2cc1C(c1ccccc1)C(O)(CCCCN(C)C)Cc1ccccc1 (single isomer, unassigned) [Compound 127] | 1.73 µg/mL (≈ 3.16 µM) | 1.73 µg/mL (≈ 3.16 µM) |  |  |
| COc1nc2ccc(Br)cc2cc1C(c1ccccc1)C(O)(CCCCN1CCCCC1)CC(C)C (racemic) [Compound 121] | 8.77 µg/mL (≈ 15.8 µM) | 1.96 µg/mL (≈ 3.54 µM) |  |  |
| COc1nc2ccccc2cc1C(c1ccc(Br)cc1)C(O)(CCCCN(C)C)c1ccc2ccccc2c1 (stereo not drawn) [Compound 63] |  |  | 1.85 µg/mL (≈ 3.17 µM) | 2.32 µg/mL (≈ 3.98 µM) |
| COc1nc2ccc(Br)cc2cc1C(c1ccccc1)C(O)(CCCCN(C)C(C)C)c1ccccc1 (single isomer, unassigned) [Compound 90] | 2.24 µg/mL (≈ 3.99 µM) | 2.51 µg/mL (≈ 4.47 µM) |  |  |
| COc1nc2ccc(Br)cc2cc1C(c1ccccc1)C(O)(CCCCN1CCN(C)CC1)c1ccccc1 (single isomer, unassigned) [Compound 111] | 9.33 µg/mL (≈ 15.9 µM) | 2.09 µg/mL (≈ 3.55 µM) |  |  |
| COc1nc2ccc(Br)cc2cc1C(c1ccccc1)C(O)(CCCCN1CCCCC1)c1ccccc1 (single isomer, unassigned) [Compound 98] | 1.81 µg/mL (≈ 3.16 µM) | 2.04 µg/mL (≈ 3.56 µM) |  |  |
| COc1nc2ccc(Br)cc2cc1C(c1ccccc1)C(O)(CCCCN(C)C(C)C)c1ccccc1 (single isomer, unassigned) [Compound 88] | 11.2 µg/mL (≈ 19.9 µM) | 6.3 µg/mL (≈ 11.2 µM) |  |  |
